Reference: patent publication US20060063784A1, “Method of using substituted pyrazolo [1,5-a] pyrimidines” (priority 2004, published 2006)
Like-named read-outs stand apart in the source and are kept apart here.

Test system: 80S14 (p21-deficient) cells
Assay: Cytotoxicity assay using isogenic cell lines: IC50 in 80S14 (p21-deficient) cells, SRB
Type: cell-based, human
Method: Cytotoxicity Assay Using Isogenic Cell Lines: • 1. 80S14 (p21-deficient) cells were cultured in RPMI 1640 medium (Gibco/Invitrogen Life technologies) supplemented with 10% fetal bovine serum (FBS, Gibco) and 10 μg/ml gentamycin (Gibco). Cells were maintained at 37° C. under 7% CO2 • 2. Cells were plated at 6×10^4/ml (0.2 ml/well; 12,000 cells/well) in 96-well microtiter plates (Falcon or Corning/Costar) and incubated at 37° C. overnight (18-24 hours). • 3. 2-5 μl of the test agent [200 μg/ml stock in 20% DMSO/20 mM HEPES, pH 7.5 (Gibco)] was added to each well to achieve a final concentration of 2-5 μg/ml. Cells were incubated with the test compounds for 5 days at 37° C. • 4. Surviving cells were fixed with 50 μl 50% trichloroacetic acid (Sigma; 10% final concentration) for 1 hour at 4° C. • 5. Plates were rinsed twice with water (0.3 ml per wash using MRD8 robot), and allowed to dry. • 6. Sulforhodamine B (SRB) (Sigma; 0.4% in 1% acetic acid, 50 μl per well; MRD8 robot) was added and plates kept at room temperature for 10 minutes. • 7. Excess dye was removed by washing with 1% acetic acid (3 times, 0.3 ml per wash; MRD8 robot) and allowed to dry. • 8. The dye was solubilized in Tris base (Sigma; 10 mM, 150 μl per well). Plates were kept at room temperature for 30 minutes to allow the dye to diffuse. • 9. Absorbance was measured at 540 nm. • 10. The percentage of cells surviving drug treatment relative to control wells (no drug) was determined. • 11. The difference in % cell survival between the two cell lines was calculated. • 12. Compounds producing a difference score of >50 were considered to be selective for the p21-deficient cells and were evaluated further: Determination of selectivity of compounds for p21−/− cells: • 1. 80S14 cells were cultured as described above. • 2. Cells were seeded in 96-well microtiter plates at 12,000 cells/well (either 0.15 ml/well of 8×10^4 cells/ml suspension, or 0.2 ml/well of 6×10^4 cells/ml suspension). Plates were incubated at 37° C. overnight (18-24 hours). • 3. Serial dilutions of the test agent were added to each well. Dilutions were prepared either in 40% DMSO/20% methanol/20 mM HEPES, pH 7.5 (Gibco) or directly in growth medium. One of two dose ranges were used: 5 pM to 50 μM or 170 pg/ml to 10 μg/ml. Cells were incubated with the test compounds for 5 days at 37° C. • 4. Surviving cells were fixed with 50 μl 50% trichloroacetic acid (Sigma; 10% final concentration) for 1 hour at 4° C. • 5. Plates were rinsed extensively in water, and allowed to dry. • 6. Sulforhodamine B (Sigma; 0.4% in 1% acetic acid, 70 μl per well) was added and plates kept at room temperature for 10 minutes. • 7. Excess dye was removed by washing 5 times with 1% acetic acid and plates were allowed to dry. • 8. The dye was solubilized in Tris base (Sigma; 10 mM, 150 μl per well). Plates were placed on a titer plate shaker (Lab Line Instruments) for 5 minutes to allow the dye to diffuse. • 9. Absorbance was measured at 560 nm.
10. The drug concentration that inhibits cell proliferation by 50% relative to untreated controls (IC50) was determined from cytotoxicity curves.

[1] = 80S14 (p21-deficient) cells, 5 days, SRB, class symbols, read-out: IC50 for 80S14
[2] = Homo sapiens, 120 h, 80S14 p21-deficient cells, 5 days incubation, SRB, read-out: IC50 for 80SI4
[3] = 80S14 p21-deficient cells, 5 days incubation, SRB, read-out: IC50 for 80SI4
[4] = Homo sapiens, 80S14, 120 h, read-out: IC50 for 80SI4 (uM)

Row | Molecule | IC50 [2] [µM] | further results
1 | 1-Methyl-N-{3-[3-(thien-2-ylcarbonyl)pyrazolo[1,5-a]pyrimidin-7-yl]phenyl}piperidine-4-carboxaamide [Example 417] | – | IC50 [1]: 10 to 50 µM
2 | 3-(3,5-Dimethylphenyl)-7-{3-[2-(2-piperidin-1-ylethyl)-2H-tetrazol-5-yl]phenyl}pyrazolo[1,5-a]pyrimidine [Example 500] | – | IC50 [1]: 1 to 10 µM
3 | 3.5-Dinitro-N-{3-[3-(2-thienylcarbonyl)pyrazolo[1,5-a]pyrimidin-7-yl]phenyl}benzamide [Example 288] | – | IC50 [1]: 10 to 50 µM
4 | O=C(Nc1ccccc1)Nc1cccc(-c2ccnc3c(C(=O)c4cccs4)cnn23)c1 [Example 1, N-phenyl-N′-{3-[3-(thien-2-ylcarbonyl)pyrazolo[1,5-a]pyrimidin-7-yl]phenyl}urea] | < 1 | –
5 | COC(=O)[C@@H](NC(=O)Nc1cccc(-c2ccnc3c(C(=O)c4cccs4)cnn23)c1)C(C)C [Example 4, methyl N-[({3-[3-(thien-2-ylcarbonyl)pyrazolo[1,5-a]pyrimidin-7-yl]phenyl}amino)carbonyl]-L-valinate] | < 1 | –
6 | CCNC(=O)Nc1cccc(-c2ccnc3c(C(=O)c4cccs4)cnn23)c1 [Example 5, N-ethyl-N′-{3-[3-(thien-2-ylcarbonyl)pyrazolo[1,5-a]pyrimidin-7-yl]phenyl}urea] | < 1 | –
7 | CC(C)NC(=O)Nc1cccc(-c2ccnc3c(C(=O)c4cccs4)cnn23)c1 [Example 6, N-isopropyl-N′-{3-[3-(thien-2-ylcarbonyl)pyrazolo[1,5-a]pyrimidin-7-yl]phenyl}urea] | < 1 | –
8 | C=CCNC(=O)Nc1cccc(-c2ccnc3c(C(=O)c4cccs4)cnn23)c1 [Example 7, N-allyl-N′-{3-[3-(thien-2-ylcarbonyl)pyrazolo[1,5-a]pyrimidin-7-yl]phenyl}urea] | < 1 | –
9 | O=C(NC(=O)C(Cl)(Cl)Cl)Nc1cccc(-c2ccnc3c(C(=O)c4cccs4)cnn23)c1 [Example 9, N-{3-[3-(thien-2-ylcarbonyl)pyrazolo[1,5-a]pyrimidin-7-yl]phenyl}-N′-(trichloroacetyl)urea] | 1 to 10 | –
10 | CCOC(=O)CNC(=O)Nc1cccc(-c2ccnc3c(C(=O)c4cccs4)cnn23)c1 [Example 10, ethyl N-[({3-[3-(thien-2-ylcarbonyl)pyrazolo[1,5-a]pyrimidin-7-yl]phenyl}amino)carbonyl]glycinate] | 10 to 50 | –
11 | C[C@H](NC(=O)Nc1cccc(-c2ccnc3c(C(=O)c4cccs4)cnn23)c1)c1ccccc1 [Example 11, N-[(1S)-1-phenylethyl]-N′-{3-[3-(thien-2-ylcarbon1)pyrazolo[1,5-a]pyrimidin-7-yl]phenyl}urea] | – | IC50 [3]: 1 to 10 µM
12 | O=C(Nc1cccc(-c2ccnc3c(C(=O)c4cccs4)cnn23)c1)N[C@H]1C[C@@H]1c1ccccc1 [Example 12, N-[(1S,2R)-2-phenylcyclopropyl]-N′-{3-[3-(thien-2-ylcarbonyl)pyrazolo[1,5-a]pyrimidin-7-yl]phenyl}urea] | < 1 | –
13 | CC(C)OC(=O)Nc1cccc(-c2ccnc3c(C(=O)c4cccs4)cnn23)c1 [Example 15, isopropyl 3-[3-(thien-2-ylcarbonyl)pyrazolo[1,5-a]pyrimidin-7-yl]phenylcarbamate] | – | IC50 [4]: < 1 µM
14 | CC(C)COC(=O)Nc1cccc(-c2ccnc3c(C(=O)c4cccs4)cnn23)c1 [Example 16, isobutyl 3-[3-(thien-2-ylcarbonyl)pyrazolo[1,5-a]pyrimidin-7-yl]phenylcarbamate] | – | IC50 [4]: < 1 µM
15 | O=C(Nc1cccc(-c2ccnc3c(C(=O)c4cccs4)cnn23)c1)OCC(Cl)(Cl)Cl [Example 18, 2,2,2-trichlroethyl 3-[3-(thien-2-ylcarbonyl)pyrazolo[1,5-a]pyrimidin-7-yl]phenylcarbamate] | – | IC50 [3]: < 1 µM
16 | C=CCCOC(=O)Nc1cccc(-c2ccnc3c(C(=O)c4cccs4)cnn23)c1 [Example 20, 3-butenyl 3-[3-(2-thienylcarbonyl)pyrazolo[1,5-a]pyrimidin-7-yl]phenylcarbamate] | – | IC50 [4]: < 1 µM

Row | Molecule | IC50 [2] [µM] | further results
17 | C=C(C)OC(=O)Nc1cccc(-c2ccnc3c(C(=O)c4cccs4)cnn23)c1 [Example 21] | – | IC50 [3]: < 1 µM
18 | Cc1ccc(OC(=O)Nc2cccc(-c3ccnc4c(C(=O)c5cccs5)cnn34)c2)cc1 [Example 23, 4-methylphenyl 3-[3-(thien-2-ylcarbonyl)pyrazolo[1,5-a]pyrimidin-7-yl]phenylcarbamate] | – | IC50 [4]: 10 to 50 µM
19 | O=C(Nc1cccc(-c2ccnc3c(C(=O)c4cccs4)cnn23)c1)OCc1ccccc1 [Example 24, benzyl 3-[3-(thien-2-ylcarbonyl)pyrazolo[1,5-a]pyrimidin-7-yl]phenylcarbamate] | < 1 | –
20 | CS(=O)(=O)Nc1cccc(-c2ccnc3c(C(=O)c4cccs4)cnn23)c1 [Example 27, N-{3-[3-(thien-2-ylcarbonyl)pyrazolo[1,5-a]pyrimidin-7-yl]phenyl} methanesulfonamide] | 1 to 10 | –
21 | CCS(=O)(=O)Nc1cccc(-c2ccnc3c(C(=O)c4cccs4)cnn23)c1 [Example 28, N-{3-[3-(thien-2-ylcarbonyl)pyrazolo[1,5-a]pyrimidin-7-yl]phenyl}ethanesulfonamide] | < 1 | –
22 | CCCCS(=O)(=O)Nc1cccc(-c2ccnc3c(C(=O)c4cccs4)cnn23)c1 [Example 29, N-{3-[3-(thien-2-ylcarbonyl)pyrazolo[1,5-a]pyrimidin-7-yl]phenyl}butane-1-sulfonamide] | 1 to 10 | –
23 | CC(C)S(=O)(=O)Nc1cccc(-c2ccnc3c(C(=O)c4cccs4)cnn23)c1 [Example 30, N-{3-[3-(thien-2-ylcarbonyl)pyrazolo[1,5-a]pyrimidin-7-yl]phenyl} propane-2-sulfonamide] | 1 to 10 | –
24 | O=C(c1cccs1)c1cnn2c(-c3cccc(NS(=O)(=O)c4ccccc4)c3)ccnc12 [Example 31, N-{3-[3-(thien-2-ylcarbonyl)pyrazolo[1,5-a]pyrimidin-7-yl]phenyl}benzenesulfonamide] | 1 to 10 | –
25 | Cc1ccc(S(=O)(=O)Nc2cccc(-c3ccnc4c(C(=O)c5cccs5)cnn34)c2)cc1 [Example 32, 4-methyl-N-{3-[3-(thien-2-ylcarbonyl)pyrazolo[1,5-a]pyrimidin-7-yl]phenyl}benzenesulfonamide] | < 1 | –
26 | Cc1ccccc1S(=O)(=O)Nc1cccc(-c2ccnc3c(C(=O)c4cccs4)cnn23)c1 [Example 33, 2-methyl-N-{3-[3-(thien-2-ylcarbonyl)pyrazolo[1,5-a]pyrimidin-7-yl]phenyl}benzenesulfonamide] | < 1 | –
27 | O=C(c1cccs1)c1cnn2c(-c3cccc(NS(=O)(=O)c4ccc(F)cc4)c3)ccnc12 [Example 34, 4-fluoro-N-{3-[3-(thien-2-ylcarbonyl)pyrazolo[1,5-a]pyrimidin-7-yl]phenyl}benzenesulfonamide] | < 1 | –
28 | O=C(c1cccs1)c1cnn2c(-c3cccc(NS(=O)(=O)c4ccc(Br)cc4)c3)ccnc12 [Example 35, 4-bromo-N-{3-[3-(thien-2-ylcarbonyl)pyrazolo[1,5-a]pyrimidin-7-yl]phenyl}benzenesulfonamide] | 1 to 10 | –
29 | COc1ccc(S(=O)(=O)Nc2cccc(-c3ccnc4c(C(=O)c5cccs5)cnn34)c2)cc1 [Example 36, 4-methoxy-N-{3-[3-(thien-2-ylcarbonyl)pyrazolo[1,5-a]pyrimidin-7-yl]phenyl}benzenesulfonamide] | 1 to 10 | –
30 | O=C(c1cccs1)c1cnn2c(-c3cccc(NS(=O)(=O)/C=C/c4ccccc4)c3)ccnc12 [Example 37, (E)-2-phenyl-N-{3-[3-(thien-2-ylcarbonyl)pyrazolo[1,5-a]pyrimidin-7-yl]phenyl}ethenesulfonamide] | 10 to 50 | –
31 | O=C(c1cccs1)c1cnn2c(-c3cccc(NS(=O)(=O)c4cccs4)c3)ccnc12 [Example 38, N-{3-[3-(thien-2-ylcarbonyl)pyrazolo[1,5-a]pyrimidin-7-yl]phenyl}thiophene-2-sulfonamide] | 1 to 10 | –
